Reference: BindingDB's records for doi:10.1016/1074-5521(95)90124-8 (University of California San Diego, 1995)
Counter-ions that a name gives are not always drawn.

How the values were obtained:
[1] = biological target: cAMP-dependent protein kinase (Oryctolagus cuniculus, UniProt Q95J97); assay: Inhibition Assay; conditions: pH 7.5
Source text: Cyclic AMP-dependent protein kinase (PKA) enzyme inhibition assay using purified recombinant C subunit of PKA (catalytic (C) subunit (cPKA)) with holoenzyme purified from rabbit muscle.

[2] = biological target: Protein kinase C beta type (Rattus norvegicus, UniProt P68403); assay: Inhibition Assay; conditions: 30 °C
Sequence of Protein kinase C beta type (P68403 whole entry): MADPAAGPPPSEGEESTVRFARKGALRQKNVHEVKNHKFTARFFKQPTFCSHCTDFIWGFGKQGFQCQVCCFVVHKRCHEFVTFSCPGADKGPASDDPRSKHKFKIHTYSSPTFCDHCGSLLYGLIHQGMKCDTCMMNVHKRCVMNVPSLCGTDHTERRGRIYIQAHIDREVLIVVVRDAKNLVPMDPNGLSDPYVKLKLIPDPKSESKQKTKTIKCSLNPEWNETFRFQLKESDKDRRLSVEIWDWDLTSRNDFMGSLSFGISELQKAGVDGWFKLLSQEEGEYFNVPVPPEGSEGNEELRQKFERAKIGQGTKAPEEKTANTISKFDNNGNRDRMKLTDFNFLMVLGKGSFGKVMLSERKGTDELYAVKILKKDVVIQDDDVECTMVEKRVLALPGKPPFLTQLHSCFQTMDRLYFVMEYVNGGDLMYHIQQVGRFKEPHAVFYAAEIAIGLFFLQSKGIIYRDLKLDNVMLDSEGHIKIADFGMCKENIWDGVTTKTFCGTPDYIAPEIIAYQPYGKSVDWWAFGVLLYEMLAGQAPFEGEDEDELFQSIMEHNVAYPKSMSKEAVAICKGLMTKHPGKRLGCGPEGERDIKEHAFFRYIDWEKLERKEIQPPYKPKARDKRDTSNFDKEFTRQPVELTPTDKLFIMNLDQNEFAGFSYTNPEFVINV

| Ki [1] [µM] | IC50 ([2]; pH 7.5) [µM] | Ki ([2]; pH 7.5) [µM] | IC50 ([1]; 30 °C) [µM] | Ki ([1]; 30 °C) [µM] | IC50 [2] [µM] | Ki [2] [µM] | SMILES |
| --- | --- | --- | --- | --- | --- | --- | --- |
|  | 0.834 | 0.64 | 0.0063 | 0.0039 |  |  | O=C(N[C@@H]1CNCCC[C@H]1OC(=O)c1cc(O)c(C(=O)c2ccccc2C(=O)O)c(O)c1)c1ccc(O)cc1 |
|  | 0.111 | 0.08 | 0.0055 | 0.0034 |  |  | O=C(N[C@@H]1CNCCC[C@H]1OC(=O)c1ccc(C(=O)c2c(O)cccc2C(=O)O)cc1)c1ccc(O)cc1 [4'',6''-Dideoxybalanol, 6] |
|  | 0.095 | 0.069 | 0.0057 | 0.0035 |  |  | O=C(N[C@@H]1CNCCC[C@H]1OC(=O)c1cc(O)c(C(=O)c2c(O)cccc2C(=O)O)c(O)c1)c1ccccc1 [5'-Deoxybalanol, 7] |
|  |  |  | 0.018 | 0.011 | 6.9 | 5 | O=C(N[C@@H]1CNCCC[C@H]1OC(=O)c1cc(O)c(C(=O)c2ccccc2O)c(O)c1)c1ccc(O)cc1 [14''-Decarboxybalanol hydrochloride, 5] |
|  |  |  |  |  |  | 0.0053 | O=C(N[C@@H]1CNCCC[C@H]1OC(=O)c1cc(O)c(C(=O)c2c(O)cccc2C(=O)O)c(O)c1)c1ccc(O)cc1 [Acyclic Balanol Analog (-)-1] |
|  |  | > 1000 |  | > 10 |  |  | COC(=O)c1cc(O)c(C(=O)c2c(O)cccc2C(=O)O)c(O)c1 [Benzophenone fragment, 2] |
| 0.048 |  |  |  |  |  | 31.7 | O=S(ONCCNC/C=C/c1ccc(Br)cc1)c1cccc2cnccc12 (stereo unspecified) [H-89, 10] |
| > 10 |  |  |  |  |  | > 1000 | O=C(N[C@@H]1CNCCC[C@H]1O)c1ccc(O)cc1 [Hexahydroazepine, 3] |
| 0.056 |  |  |  |  |  | > 2 | CCCCCCOC(=O)[C@@]1(O)CC2O[C@]1(C)n1c3ccccc3c3c4c(c5c6ccccc6n2c5c31)C(=O)NC4 [KT5720, 9] |

| SMILES | Ki [1] [µM] | IC50 ([2]; pH 7.5) [µM] | Ki ([2]; pH 7.5) [µM] | IC50 ([1]; 30 °C) [µM] | Ki ([1]; 30 °C) [µM] | IC50 [2] [µM] | Ki [2] [µM] |
| --- | --- | --- | --- | --- | --- | --- | --- |
| CN[C@@H]1C[C@H]2O[C@@](C)([C@@H]1OC)n1c3ccccc3c3c4c(c5c6ccccc6n2c5c31)C(=O)NC4 | 0.035 |  |  |  |  |  |  |
